From publication PMC10708527, “Salazinic Acid and Norlobaridone from the Lichen Hypotrachyna cirrhata: Antioxidant Activity, α-Glucosidase Inhibitory and Molecular Docking Studies” (Molecules, 2023)

What follows are compounds tested against T1, intestinal α-glucosidase (assay: crude enzyme inhibition, p-nitrophenyl-α-D-glucopyranoside hydrolysis at […] nm).
T1 construct: crude rat intestinal enzyme
Assay type: biochemical, Rattus norvegicus

SMILES	Intestinal α-Glucosidase % Inhibition (IC50) [µg/mL]
C[C@H]1O[C@H](O[C@H]2[C@H](O)[C@@H](O)[C@@H](O[C@H]3[C@H](O)[C@@H](O)C(O)O[C@@H]3CO)O[C@@H]2CO)[C@H](O)[C@@H](O)[C@@H]1N[C@H]1C=C(CO)[C@@H](O)[C@H](O)[C@H]1O (some centres unmarked) [acarbose, reference compound]	2.58 ± 0.85
Cc1cc(O)c(C=O)c2c1C(=O)Oc1c(CO)c(O)c3c(c1O2)C(O)OC3=O (centres unmarked) [compound 11, salazinic acid]	1.62 ± 0.07

Continued, values first:

Intestinal α-Glucosidase % Inhibition (IC50) [µg/mL]	SMILES
1.41 ± 0.01	CCCCCc1cc(O)cc2c1Oc1cc(O)cc(C(=O)CCCC)c1C(=O)O2 [compound 12, norlobaridone]
1.99 ± 0.03	COc1c(C)c(O)cc(C)c1C(=O)O [compound 18, iso-rhizonic acid]
2.07 ± 0.01	COC(=O)c1c(C)cc(OC(=O)c2c(C)cc(O)c(C=O)c2O)c(C)c1O [compound 13, atranorin]
